{"source": "patent US12582617B2", "about": "“Methods for treating cancer” (RADIUS PHARMACEUTICALS, INC., priority 2015, dated 2026)", "experiment": "Phase 1 dose escalation study: safety, treatment related AEs", "format": "in vivo", "procedure": "The subjects were 40-75 years old with BMI of 18.0-30 kg/m^2. Subjects having evidence of clinically relevant pathology, increased risk of stroke or of history venous thromboembolic events, or use of concomitant medication less than 14 days prior to admission to clinical research center (paracetamol allowed up to 3 days prior) were excluded.\nThe subjects were treated with placebo or at least one dose p.o., q.d. after a light breakfast for 7 days at dose levels of 200 mg, 500 mg, 750 mg and 1000 mg, respectively.", "note": "Counter-ions that a name gives are not always drawn."}
{"molecule": "CCNCCc1ccc(CN(CC)c2cc(OC)ccc2[C@@H]2CCc3cc(O)ccc3C2)cc1", "note": "[RAD1901, (6R)-6-(2-(N-(4-(2-(ethylamino)ethyl)benzyl)-N-ethylamino)-4-methoxyphenyl)-5,6,7,8-tetrahydronaphthalen-2-ol dihydrochloride]", "values": [{"measurement": "Abdominal discomfort (treatment related AE)", "setting": "500 mg, Gr2", "value": "0 n(%)"}, {"measurement": "Abdominal distension (treatment related AE)", "setting": "500 mg, Gr2", "value": "0 n(%)"}, {"measurement": "Abdominal pain (treatment related AE)", "setting": "500 mg, Gr2", "value": "0 n(%)"}, {"measurement": "Diarrhoea (treatment related AE)", "setting": "500 mg, Gr2", "value": "0 n(%)"}, {"measurement": "Dizziness (treatment related AE)", "setting": "500 mg, Gr2", "value": "0 n(%)"}, {"measurement": "Dyspepsia (treatment related AE)", "setting": "500 mg, Gr2", "value": "2 n(%)"}, {"measurement": "Dysphagia (treatment related AE)", "setting": "500 mg, Gr2", "value": "2 n(%)"}, {"measurement": "Flatulance (treatment related AE)", "setting": "500 mg, Gr2", "value": "0 n(%)"}, {"measurement": "Headache (treatment related AE)", "setting": "500 mg, Gr2", "value": "1 n(%)"}, {"measurement": "Hiccups (treatment related AE)", "setting": "500 mg, Gr2", "value": "0 n(%)"}, {"measurement": "Hot flush (treatment related AE)", "setting": "500 mg, Gr2", "value": "0 n(%)"}, {"measurement": "Myalgia (treatment related AE)", "setting": "500 mg, Gr2", "value": "1 n(%)"}, {"measurement": "Nausea (treatment related AE)", "setting": "500 mg, Gr2", "value": "2 n(%)"}, {"measurement": "Odynophagia (treatment related AE)", "setting": "500 mg, Gr2", "value": "1 n(%)"}, {"measurement": "Oesophageal pain (treatment related AE)", "setting": "500 mg, Gr2", "value": "3 n(%)"}, {"measurement": "Salivary hypersecretion (treatment related AE)", "setting": "500 mg, Gr2", "value": "0 n(%)"}, {"measurement": "Sensation of a foreign body (treatment related AE)", "setting": "500 mg, Gr2", "value": "0 n(%)"}, {"measurement": "Vomiting (treatment related AE)", "setting": "500 mg, Gr2", "value": "5 n(%)"}, {"measurement": "Abdominal discomfort (treatment related AE)", "setting": "500 mg, Gr3", "value": "0 n(%)"}, {"measurement": "Abdominal distension (treatment related AE)", "setting": "500 mg, Gr3", "value": "0 n(%)"}, {"measurement": "Abdominal pain (treatment related AE)", "setting": "500 mg, Gr3", "value": "0 n(%)"}, {"measurement": "Diarrhoea (treatment related AE)", "setting": "500 mg, Gr3", "value": "0 n(%)"}, {"measurement": "Dizziness (treatment related AE)", "setting": "500 mg, Gr3", "value": "0 n(%)"}, {"measurement": "Dyspepsia (treatment related AE)", "setting": "500 mg, Gr3", "value": "0 n(%)"}, {"measurement": "Dysphagia (treatment related AE)", "setting": "500 mg, Gr3", "value": "0 n(%)"}, {"measurement": "Flatulance (treatment related AE)", "setting": "500 mg, Gr3", "value": "0 n(%)"}, {"measurement": "Headache (treatment related AE)", "setting": "500 mg, Gr3", "value": "0 n(%)"}, {"measurement": "Hiccups (treatment related AE)", "setting": "500 mg, Gr3", "value": "0 n(%)"}, {"measurement": "Hot flush (treatment related AE)", "setting": "500 mg, Gr3", "value": "0 n(%)"}, {"measurement": "Myalgia (treatment related AE)", "setting": "500 mg, Gr3", "value": "0 n(%)"}, {"measurement": "Nausea (treatment related AE)", "setting": "500 mg, Gr3", "value": "0 n(%)"}, {"measurement": "Odynophagia (treatment related AE)", "setting": "500 mg, Gr3", "value": "0 n(%)"}, {"measurement": "Oesophageal pain (treatment related AE)", "setting": "500 mg, Gr3", "value": "0 n(%)"}, {"measurement": "Salivary hypersecretion (treatment related AE)", "setting": "500 mg, Gr3", "value": "0 n(%)"}, {"measurement": "Sensation of a foreign body (treatment related AE)", "setting": "500 mg, Gr3", "value": "0 n(%)"}, {"measurement": "Vomiting (treatment related AE)", "setting": "500 mg, Gr3", "value": "1 n(%)"}, {"measurement": "Abdominal discomfort (treatment related AE)", "setting": "750 mg, Gr1", "value": "1 (13) n(%)"}, {"measurement": "Abdominal distension (treatment related AE)", "setting": "750 mg, Gr1", "value": "1 (13) n(%)"}, {"measurement": "Abdominal pain (treatment related AE)", "setting": "750 mg, Gr1", "value": "1 (13) n(%)"}, {"measurement": "Diarrhoea (treatment related AE)", "setting": "750 mg, Gr1", "value": "0 n(%)"}, {"measurement": "Dizziness (treatment related AE)", "setting": "750 mg, Gr1", "value": "1 (13) n(%)"}, {"measurement": "Dyspepsia (treatment related AE)", "setting": "750 mg, Gr1", "value": "4 (50) n(%)"}, {"measurement": "Dysphagia (treatment related AE)", "setting": "750 mg, Gr1", "value": "3 (38) n(%)"}, {"measurement": "Flatulance (treatment related AE)", "setting": "750 mg, Gr1", "value": "1 (13) n(%)"}, {"measurement": "Headache (treatment related AE)", "setting": "750 mg, Gr1", "value": "3 (38) n(%)"}, {"measurement": "Hiccups (treatment related AE)", "setting": "750 mg, Gr1", "value": "2 (25) n(%)"}, {"measurement": "Hot flush (treatment related AE)", "setting": "750 mg, Gr1", "value": "2 (25) n(%)"}, {"measurement": "Myalgia (treatment related AE)", "setting": "750 mg, Gr1", "value": "1 (13) n(%)"}, {"measurement": "Nausea (treatment related AE)", "setting": "750 mg, Gr1", "value": "2 (25) n(%)"}, {"measurement": "Odynophagia (treatment related AE)", "setting": "750 mg, Gr1", "value": "0 n(%)"}, {"measurement": "Oesophageal pain (treatment related AE)", "setting": "750 mg, Gr1", "value": "1 (13) n(%)"}, {"measurement": "Salivary hypersecretion (treatment related AE)", "setting": "750 mg, Gr1", "value": "2 (25) n(%)"}, {"measurement": "Sensation of a foreign body (treatment related AE)", "setting": "750 mg, Gr1", "value": "0 n(%)"}, {"measurement": "Vomiting (treatment related AE)", "setting": "750 mg, Gr1", "value": "0 n(%)"}, {"measurement": "Abdominal discomfort (treatment related AE)", "setting": "750 mg, Gr2", "value": "1 n(%)"}, {"measurement": "Abdominal distension (treatment related AE)", "setting": "750 mg, Gr2", "value": "0 n(%)"}, {"measurement": "Abdominal pain (treatment related AE)", "setting": "750 mg, Gr2", "value": "0 n(%)"}, {"measurement": "Diarrhoea (treatment related AE)", "setting": "750 mg, Gr2", "value": "0 n(%)"}, {"measurement": "Dizziness (treatment related AE)", "setting": "750 mg, Gr2", "value": "0 n(%)"}, {"measurement": "Dyspepsia (treatment related AE)", "setting": "750 mg, Gr2", "value": "0 n(%)"}, {"measurement": "Dysphagia (treatment related AE)", "setting": "750 mg, Gr2", "value": "1 n(%)"}, {"measurement": "Flatulance (treatment related AE)", "setting": "750 mg, Gr2", "value": "0 n(%)"}, {"measurement": "Headache (treatment related AE)", "setting": "750 mg, Gr2", "value": "0 n(%)"}, {"measurement": "Hiccups (treatment related AE)", "setting": "750 mg, Gr2", "value": "0 n(%)"}, {"measurement": "Hot flush (treatment related AE)", "setting": "750 mg, Gr2", "value": "0 n(%)"}, {"measurement": "Myalgia (treatment related AE)", "setting": "750 mg, Gr2", "value": "0 n(%)"}, {"measurement": "Nausea (treatment related AE)", "setting": "750 mg, Gr2", "value": "1 n(%)"}, {"measurement": "Odynophagia (treatment related AE)", "setting": "750 mg, Gr2", "value": "0 n(%)"}, {"measurement": "Oesophageal pain (treatment related AE)", "setting": "750 mg, Gr2", "value": "0 n(%)"}, {"measurement": "Salivary hypersecretion (treatment related AE)", "setting": "750 mg, Gr2", "value": "0 n(%)"}, {"measurement": "Sensation of a foreign body (treatment related AE)", "setting": "750 mg, Gr2", "value": "0 n(%)"}, {"measurement": "Vomiting (treatment related AE)", "setting": "750 mg, Gr2", "value": "2 n(%)"}, {"measurement": "Abdominal discomfort (treatment related AE)", "setting": "750 mg, Gr3", "value": "0 n(%)"}]}
